# Experimental data as given in article PMC11134331, “Cell-active small molecule inhibitors validate the SNM1A DNA repair nuclease as a cancer target” (Chemical Science, 2024).
# How the values were obtained:
# solubility = format: physicochemical
# SNM1A [1] = molecular target: T1, SNM1A (Homo sapiens, UniProt Q6PJP8); assay: real-time fluorescence-based nuclease assay, SNM1A; format: biochemical; design: DNA encoding for the MBL and β-CASP domains of SNM1A (aa 676–1040) was cloned into the baculovirus transfer vector pFB-LIC-Bse; inferred from vector pFB-LIC-Bse and the IMAC purification; made in house; host or cells: Sf9 insect cells (baculovirus); details: for IC50: read-out: SNM1A IC50
# T1 sequence (Q6PJP8 676-1040): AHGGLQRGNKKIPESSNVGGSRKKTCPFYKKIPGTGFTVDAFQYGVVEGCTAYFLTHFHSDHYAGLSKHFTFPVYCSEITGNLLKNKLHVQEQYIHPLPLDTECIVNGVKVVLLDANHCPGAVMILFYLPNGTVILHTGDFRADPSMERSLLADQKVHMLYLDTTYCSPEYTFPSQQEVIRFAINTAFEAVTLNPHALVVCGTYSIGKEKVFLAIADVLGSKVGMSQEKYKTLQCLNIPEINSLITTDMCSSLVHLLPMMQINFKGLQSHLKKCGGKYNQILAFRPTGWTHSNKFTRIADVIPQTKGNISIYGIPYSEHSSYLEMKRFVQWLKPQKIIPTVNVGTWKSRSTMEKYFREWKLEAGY
# Description: In brief, the fluorescence-based nuclease assay utilises a chemically modified 20-nucleotide ssDNA substrate with a fluorescein isothiocyanate (FITC) derived 5′-group and an internal black-hole-quencher-1 (BHQ-1), located eight nucleotides distal to the fluorescein group. In the intact substrate the BHQ-1 suppresses fluorescence, however, exonucleolytic digestion of the substrate from the 5′ end by SNM1A uncouples the BHQ-1 and FITC moieties (see Fig. 1D). Spectra were measured every 140 seconds with an increase in fluorescence indicating enzymatic activity by SNM1A (concentration: 0.1 nM).
# (§1) Fluorescence-based nuclease digestion SNM1A–C assays were performed as described.[30,45] In the case of SNM1A and SNM1B, a 20-mer oligonucleotide with a 5′ FITC-conjugated-T and an internal BHQ-1 (black hole quencher) conjugated-T, eight nucleotides distal (3′) to the fluor was utilised; whereas for SNM1C a 20-mer oligonucleotide with a 5′ FITC-conjugated-T and a 3′ BHQ-1(black hole quencher) was used to capture all possible endonucleolytic incisions. Reactions (25 μL) were performed in 384 well microplates in nuclease buffer (20 mM HEPES-KOH pH 7.5, 50 mM KCl, 10 mM MgCl2, 0.5 mM TCEP, 0.05% (v/v) Triton-X, 0.1 mg mL^−1 BSA, 5% (v/v) glycerol) with SNM1A/B/C (0.1 nM SNM1A, 0.5 nM SNM1B and 1 nM SNM1C) as indicated. Proteins were incubated for 10 min at RT with the stated compound where applicable, before the reaction was initiated with the addition of 10 nM DNA substrate. […] Fluorescence spectra were measured every 140 s, for 35 min, at 37 °C. The fluorescence intensity of each well was plotted against compound concentration and fitted using a log (inhibitor) response curve using GraphPad Prism software (GraphPad Software, Inc., La Jolla, CA, USA).
# SNM1B = molecular target: T2, SNM1B (Homo sapiens, UniProt Q9H816); assay: gel-based nuclease assay, SNM1B; format: biochemical; details: 1 nM SNM1B
# T2 construct: for the MBL and β-CASP domains of SNM1B (aa 1–335) into baculoviral expression vectors pFB-CT10HF-LIC; made in house; host or cells: Sf9 insect cells (baculovirus)
# T2 sequence (Q9H816 1-335): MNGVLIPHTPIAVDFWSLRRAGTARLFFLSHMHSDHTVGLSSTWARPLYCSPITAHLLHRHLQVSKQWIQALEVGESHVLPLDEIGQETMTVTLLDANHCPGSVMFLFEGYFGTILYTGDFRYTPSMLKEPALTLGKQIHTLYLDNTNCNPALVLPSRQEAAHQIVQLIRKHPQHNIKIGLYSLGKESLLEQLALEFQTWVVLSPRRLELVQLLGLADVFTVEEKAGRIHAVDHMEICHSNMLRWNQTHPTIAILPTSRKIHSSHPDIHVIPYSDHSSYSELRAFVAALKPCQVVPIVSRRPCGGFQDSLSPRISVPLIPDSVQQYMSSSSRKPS
# From the text: (§2) To validate the inhibition of SNM1A, SNM1B, and SNM1C observed in the fluorescence-based screening assays, we then performed gel-based assays using 3′ terminally-labelled oligonucleotide substrates that enable both quantitative and qualitative (visual) assessment of the pattern of inhibition, for a subset of compounds. Importantly, whereas the fluorescence-based assay measures a single hydrolytic event at the substrate terminus, the gel-based nuclease assay informs on the pattern of digestion of the entire 51-mer substrate DNA over time.
# (§3) Standard exonuclease assays were carried out in a 10 μL final volume containing 20 mM HEPES-KOH, pH 7.5, 50 mM KCl, 0.5 mM TCEP, 10 mM MgCl2, 0.05% (v/v) Triton X-100, 5% (v/v) glycerol, and SNM1 proteins as indicated. Inhibitors were dissolved in DMSO and diluted immediately prior to the reaction in the above buffer. Inhibitors were serially diluted two-fold from 100 μM. The DMSO concentration was kept constant at 0.1% (v/v) in the final reaction mixture. Inhibitors were incubated with the indicated SNM1 enzyme for 10 minutes at room temperature; reactions were initiated by addition of 10 nM DNA substrate and incubated at 37 °C for 20 min. Reactions were quenched by addition of 5 μL stop solution (95% formamide, 10 mM EDTA, 0.25% (v/v) xylene cyanol, 0.25% (v/v) bromophenol blue) and heated at 95 °C for 3 min. Reactions were analysed by 20% denaturing polyacrylamide gel electrophoresis solution of 19 : 1 acrylamide:bis-acrylamide, BioRad and 7 M urea (Sigma Aldrich) in 1 × TBE (Tris-borate EDTA) buffer. Electrophoresis was carried out at 525 V for 75 minutes; gels were subsequently fixed for 60 minutes in a 50% (v/v) methanol, 10% (v/v) acetic acid solution, and dried at 80 °C for two hours under vacuum. Dried gels were exposed to a Kodak Phosphor imager screen and scanned using a Typhoon 9500 instrument (GE Healthcare), scanned images were quantified using ImageJ.
# Suppl. Figure 10. Increasing concentrations (as indicated, in μM) of compounds incubated with 1 nM SNM1B or 2.5 nM SNM1C (room temperature, 10 min), before initiating nuclease reaction by addition of ssDNA (37 °C, 20 min). Products were analysed by 20% denaturing PAGE. Gels are representative versions from a minimum of three independent experimental repeats.
# (1 picture or pasted object on this page, not shown here)
# [2] = system: U2OS (osteosarcoma) cells; assay: clonogenic survival assay, U2OS cells; format: cell-based, human; details: for cell death as single agent: U2OS, 50 μM compound
# Description: Clonogenic assays were performed in 10 cm tissue culture dishes (for RPE-1 cells, U2OS cells and derived clones). Cells (1000 per dish) were seeded in complete media (10 mL) and allowed to attach overnight, then treated with cisplatin or cisplatin plus inhibitor for the times stated. Following treatments, cells were allowed to grow and form colonies for 10 days. Colonies formed were stained with Coomassie R250 (Sigma) and counted on a COLCount Colony Counter (Oxford Optronix). All experiments represent the mean (±SEM) of at least three biological repeats of duplicate dishes/flasks for each treatment.
# SNM1A [3] = molecular target: T1, SNM1A; assay: gel-based nuclease assay, SNM1A; format: biochemical; design: DNA encoding for the MBL and β-CASP domains of SNM1A (aa 676–1040) was cloned into the baculovirus transfer vector pFB-LIC-Bse; inferred from vector pFB-LIC-Bse and the IMAC purification; made in house; host or cells: Sf9 insect cells (baculovirus); details: 0.5 nM SNM1A
# From the text: as §2, §3
# SNM1C [4] = molecular target: T3, SNM1C (Homo sapiens, UniProt Q96SD1); assay: real-time fluorescence-based nuclease assay, SNM1C; format: biochemical
# T3 construct: for the MBL and β-CASP domains of SNM1C (aa 1–362) into the baculovirus expression vector pBF-6HZB; made in house; host or cells: Sf9 insect cells (baculovirus)
# From the text: There is structural similarity between SNM1A, SNM1B, and SNM1C and major mechanistic features are likely conserved between the three nucleases. We therefore tested (13) and other hydroxamic acid analogues for inhibition of SNM1B and SNM1C. […] Note that the substrate utilised for the high-throughput fluorescence based and subsequent SNM1A and SNM1B assays differed slightly for SNM1C reflecting its (primarily) endonucleolytic, rather than exonucleolytic, activity (ESI Fig. 9 ^†).
# as §1
# SNM1C [5] = molecular target: T3, SNM1C; assay: gel-based nuclease assay, SNM1C; format: biochemical
# From the text: as §2, §3
# Suppl. Figure 10. […] Products were analysed by 20% denaturing PAGE. […]
# [6] = real-time fluorescence-based nuclease assay, resynthesised compounds
# T3 sequence (Q96SD1 1-362): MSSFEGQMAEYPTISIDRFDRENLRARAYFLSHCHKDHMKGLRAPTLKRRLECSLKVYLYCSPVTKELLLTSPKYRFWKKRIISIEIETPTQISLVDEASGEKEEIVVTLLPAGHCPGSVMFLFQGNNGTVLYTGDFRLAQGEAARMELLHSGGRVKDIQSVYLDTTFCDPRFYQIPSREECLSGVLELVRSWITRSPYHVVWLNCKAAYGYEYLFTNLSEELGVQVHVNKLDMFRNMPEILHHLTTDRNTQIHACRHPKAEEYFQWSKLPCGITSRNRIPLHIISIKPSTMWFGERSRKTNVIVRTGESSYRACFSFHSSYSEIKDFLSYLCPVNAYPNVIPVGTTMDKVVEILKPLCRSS
compound,measurement,setting,value
O=c1[nH]c2cnc3ccc(Cl)cc3c2[nH]c1=O [compound 2],solubility,solubility,poor solubility
same,IC50,SNM1A [1]; [6],2 µM
COc1cc2c3c(cccc3c1)C(=O)N(O)C2=O [compound 3],solubility,solubility,poor solubility
same,IC50,SNM1A [1]; [6],2.9 µM
C=CCNc1nc(N[C@@H](CC(C)C)C(=O)OC)c2cc(Cl)ccc2n1 [compound 7],IC50,SNM1A [1]; [6],> 1000 µM
C=CCNc1nc(N[C@@H](CC(C)C)C(N)=O)c2cc(Cl)ccc2n1 [compound 8],IC50,SNM1A [1]; [6],> 1000 µM
C=CCNc1nc(N[C@H](CO)CC(C)C)c2cc(Cl)ccc2n1 [compound 9],IC50,SNM1A [1]; [6],> 1000 µM
C=CCNc1nc(NC(CC(C)C)C(=O)NO)c2cc(Cl)ccc2n1 (stereo not shown) [compound 10],increase in SNM1A potency compared to K1 (6),SNM1A [1]; fluorescence-based assay,3 fold
same,IC50,SNM1A [1]; [6],33 µM
C=CCNc1nc(NCC(=O)NO)c2cc(Cl)ccc2n1 [compound 11],IC50,SNM1A [1]; [6],17 µM
C=CCNc1nc(N[C@H](C)C(=O)NO)c2cc(Cl)ccc2n1 [compound 12],inhibition of SNM1B in gel-based assay,SNM1B,good inhibition
same,effect on cisplatin cytotoxicity,"[2]; U2OS wild-type, 50 μM compound 20 hours pre-treatment, 0–15 μM cisplatin",potentiation of cisplatin cytotoxicity
same,cell death as single agent,[2],≤ 10%
same,IC50,SNM1A [1]; [6],2.2 µM
same,inhibition of SNM1A in gel-based assay,SNM1A [3],good inhibition
C=CCNc1nc(N[C@@H](C)C(=O)NO)c2cc(Cl)ccc2n1 [compound 13],inhibition of SNM1B in gel-based assay,SNM1B,good inhibition
same,cell death as single agent,[2],≤ 10%
same,IC50,SNM1A [1]; [6],0.8 µM
same,inhibition of SNM1A in gel-based assay,SNM1A [3],good inhibition
C=CCNc1nc(NC(CO)C(=O)NO)c2cc(Cl)ccc2n1 (stereo not shown) [compound 14],IC50,SNM1A [1]; [6],4.1 µM
C[C@H](Nc1nc(N2CCOCC2)nc2ccc(Cl)cc12)C(=O)NO [compound 15],IC50,SNM1A [1]; [6],42 µM
C[C@H](Nc1nc(NCc2ccccc2)nc2ccc(Cl)cc12)C(=O)NO [compound 16],IC50,SNM1C [4]; real-time fluorescence-based nuclease assay,1.1 µM
same,IC50,SNM1A [1]; [6],34 µM
CCCN(C)c1nc(N[C@@H](C)C(=O)NO)c2cc(Cl)ccc2n1 [compound 17],IC50,SNM1A [1]; [6],20 µM
CCN(CC)c1nc(N[C@@H](C)C(=O)NO)c2cc(Cl)ccc2n1 [compound 18],"selectivity among SNM1A, SNM1B, SNM1C",SNM1C [4]; fluorescence-based assays,only potent against SNM1C
same,IC50,SNM1A [1]; [6],> 100 µM
C=CCNC(=O)c1nc(N[C@@H](C)C(=O)NO)c2ccccc2n1 [compound 20],inhibition of SNM1B in gel-based assay,SNM1B,good inhibition
same,decrease in SNM1A potency compared to 13,SNM1A [1]; fluorescence-based assay,100 fold
same,IC50,SNM1A [1]; [6],84 µM
same,inhibition of SNM1A in gel-based assay,SNM1A [3],good inhibition
CCOc1nc(N[C@@H](C)C(=O)NO)c2cc(Cl)ccc2n1 [compound 21],concentration giving complete inhibition of SNM1C digestion,SNM1C [5],~6 µM
same,inhibition of SNM1C in gel-based assay,SNM1C [5]; 2.5 nM SNM1C,clearly inhibits the nuclease activity of SNM1C
same,IC50,SNM1A [1]; [6],67 µM
C[C@H](Nc1nc(N(C)C)nc2ccc(Cl)cc12)C(=O)NO [compound 22],IC50,SNM1A [1]; [6],11 µM
C[C@H](Nc1nc(N(C)C)nc2ccc(F)cc12)C(=O)NO [compound 23],IC50,SNM1A [1]; [6],13 µM
COc1ccc2nc(N(C)C)nc(N[C@@H](C)C(=O)NO)c2c1 [compound 24],IC50,SNM1A [1]; [6],74 µM
"AZ1353160 [compound 4, reference compound]",SNM1A IC50,SNM1A [1]; [6],an IC50 value could not be calculated
